# Measured values taken from patent US20240148821A1, “PHARMACEUTICAL USE OF CYCLIC PEPTIDE COMPOUND” (CHUGAI SEIYAKU KABUSHIKI KAISHA, priority 2021, published 2024).
# Numbered stars: 1 amine (or outer) side, 2 acyl side, 3 side chain; on linkers, the order of the positions; unused ones are H or OH. Bridge positions count the residues as written; N and C are the ends. Square brackets hold non-standard residues; d marks the D form. Peptide text beside a SMILES is read from it. * marks the point of attachment. hPhe(3-Cl-4-CF3) = N[C@@H](CCc1ccc(C(F)(F)F)c(Cl)c1)C(=O)O; NMePhe(4-Me) = CN[C@@H](Cc1ccc(C)cc1)C(=O)O; NMePhe(2-Cl) = CN[C@@H](Cc1ccccc1Cl)C(=O)O; X61 = O=C(CN(CCCN1CCC(F)(F)CC1)[*:1])[*:2]; X42 = CC(C)C[C@H](CC(=O)[*:2])N(C)[*:1]; NMeGly(cBu) = CN[C@H](C(=O)O)C1CCC1; NMeCha = CN[C@@H](CC1CCCCC1)C(=O)O; X4 = C#CC[C@H](CC(=O)[*:2])N[*:1]; NMeChg = CN[C@H](C(=O)O)C1CCCCC1; NMeI = CC[C@H](C)[C@H](NC)C(=O)O; d(β3hL) = CC(C)C[C@@H](N)CC(=O)O; NMeD = CN[C@@H](CC(=O)O)C(=O)O; NMeL = CN[C@@H](CC(C)C)C(=O)O; NMeNle = CCCC[C@H](NC)C(=O)O; NMeV = CN[C@H](C(=O)O)C(C)C; d(β3hA) = C[C@@H](N)CC(=O)O; NMeAbu = CC[C@H](NC)C(=O)O; NMeS = CN[C@@H](CO)C(=O)O; Morpholide = C1CN(*)CCO1; NMeA = CN[C@@H](C)C(=O)O; Piperidide = C1CCN(*)CC1; Pyrrolidide = C1CCN(*)C1; dNMeA = CN[C@H](C)C(=O)O; Ac5c = NC1(C(=O)O)CCCC1; Aze = O=C(O)[C@@H]1CCN1; Sar = CNCC(=O)O; Propyl = CCC*
# Target: protein-protein interaction between Kras and SOS1 (biotin-tagged human Kras loaded with GDP, His-tagged human SOS1) (Homo sapiens (Human), UniProt P01116, G12D)
# Assay: Protein-protein interaction inhibition between Kras and SOS1 (KrasG12D-SOS PPI) using AlphaScreen;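 further: kras produced in E. coli, Ni-coupled donor beads and streptavidin acceptor beads, excitation 680 nm with emission detected at 520–620 nm via singlet oxygen transfer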
# Format: biochemical
# Settings: AlphaScreen; biotin-tagged human Kras loaded with GDP, His-tagged human SOS1; read-out: KRAS G12D-SOS PPI IC50
row,SMILES,IC50 [µM]
1,CC[C@H](C)[C@@H]1NC(=O)[C@H](CC(C)C)N(C)C(=O)C[C@@H](C(=O)N(C)C)N(C)C(=O)[C@H]([C@@H](C)CC)N(C)C(=O)C2(CCCC2)NC(=O)[C@@H]2CCCN2C(=O)[C@H](CCc2ccc(C(F)(F)F)c(Cl)c2)NC(=O)CN(C)C(=O)[C@H](C2CCC2)N(C)C(=O)[C@@H]2CCN2C(=O)[C@H](C)N(C)C1=O [Compound 1961] ([NMeL]I[NMeA][Aze][NMeGly(cBu)][Sar][hPhe(3-Cl-4-CF3)]P[Ac5c][NMeI][NMeD]-NMe2; lactam N-11),0.0018
2,C#CC[C@@H]1CC(=O)N(C)[C@@H](CC(C)C)C(=O)N[C@@H]([C@@H](C)CC)C(=O)N(C)[C@@H](C)C(=O)N2CC[C@H]2C(=O)N(C)[C@@H](Cc2ccc(C)cc2)C(=O)N(C)CC(=O)N[C@@H](CCc2ccc(C(F)(F)F)c(Cl)c2)C(=O)N2CCC[C@H]2C(=O)NC2(CCCC2)C(=O)N(C)[C@@H]([C@@H](C)CC)C(=O)N1 [Compound 1967] (cyclo([Ac5c][NMeI][X4][NMeL]I[NMeA][Aze][NMePhe(4-Me)][Sar][hPhe(3-Cl-4-CF3)]P)),0.077
3,CC[C@H](C)[C@@H]1NC(=O)[C@H](CC(C)C)N(C)C(=O)C[C@@H](CC(C)C)N(C)C(=O)[C@H]([C@@H](C)CC)N(C)C(=O)C2(CCCC2)NC(=O)[C@@H]2CCCN2C(=O)[C@H](CCc2ccc(C(F)(F)F)c(Cl)c2)NC(=O)CN(C)C(=O)[C@H](Cc2ccc(C)cc2)N(C)C(=O)[C@@H]2CCN2C(=O)[C@H](C)N(C)C1=O [Compound 1974] (cyclo([Ac5c][NMeI][X42][NMeL]I[NMeA][Aze][NMePhe(4-Me)][Sar][hPhe(3-Cl-4-CF3)]P)),0.045
4,CC[C@H](C)[C@@H]1NC(=O)[C@H](CC(C)C)N(C)C(=O)C[C@@H](CC(C)C)NC(=O)[C@H]([C@@H](C)CC)N(C)C(=O)C2(CCCC2)NC(=O)[C@@H]2CCCN2C(=O)[C@H](CCc2ccc(C(F)(F)F)c(Cl)c2)NC(=O)CN(C)C(=O)[C@H](Cc2ccc(C)cc2)N(C)C(=O)[C@@H]2CCN2C(=O)[C@H](C)N(C)C1=O [Compound 1995] (cyclo([Ac5c][NMeI][d(β3hL)][NMeL]I[NMeA][Aze][NMePhe(4-Me)][Sar][hPhe(3-Cl-4-CF3)]P)),0.34
5,CC[C@H](C)[C@@H]1NC(=O)[C@H](C)N(C)C(=O)C[C@@H](C(=O)N2CCCCC2)N(C)C(=O)[C@H](C(C)C)N(C)C(=O)C2(CCCC2)NC(=O)[C@H](Cc2ccccc2Cl)N(C)C(=O)[C@H](CCc2ccc(C(F)(F)F)c(Cl)c2)NC(=O)CN(C)C(=O)[C@H](Cc2ccc(C)cc2)N(C)C(=O)CN(C)C(=O)CN(C)C1=O [Compound 2007] ([NMeA]I[Sar][Sar][NMePhe(4-Me)][Sar][hPhe(3-Cl-4-CF3)][NMePhe(2-Cl)][Ac5c][NMeV][NMeD]-Piperidide; lactam N-11),0.23
6,CC[C@H](C)[C@@H]1NC(=O)[C@H](C)N(C)C(=O)C[C@@H](C(=O)N2CCCC2)N(C)C(=O)[C@H](C(C)C)N(C)C(=O)C2(CCCC2)NC(=O)[C@H](Cc2ccccc2Cl)N(C)C(=O)[C@H](CCc2ccc(C(F)(F)F)c(Cl)c2)NC(=O)CN(C)C(=O)[C@H](CC2CCCCC2)N(C)C(=O)CN(C)C(=O)CN(C)C1=O [Compound 2008] ([NMeA]I[Sar][Sar][NMeCha][Sar][hPhe(3-Cl-4-CF3)][NMePhe(2-Cl)][Ac5c][NMeV][NMeD]-Pyrrolidide; lactam N-11),0.14
7,CC[C@H](C)[C@@H]1NC(=O)[C@H](C)N(C)C(=O)C[C@@H](C)NC(=O)[C@H](C(C)C)N(C)C(=O)C2(CCCC2)NC(=O)[C@@H]2CCCN2C(=O)[C@H](CCc2ccc(C(F)(F)F)c(Cl)c2)NC(=O)[C@@H](C)N(C)C(=O)[C@H](CC2CCCCC2)N(C)C(=O)[C@@H]2CCCN2C(=O)[C@@H]2CCN2C1=O [Compound 2009] (cyclo([Ac5c][NMeV][d(β3hA)][NMeA]I[Aze]P[NMeCha][dNMeA][hPhe(3-Cl-4-CF3)]P)),0.082
8,CC[C@H](C)[C@@H]1NC(=O)[C@H](C)N(C)C(=O)C[C@@H](C)NC(=O)[C@H](C(C)C)N(C)C(=O)C2(CCCC2)NC(=O)[C@@H]2CCCN2C(=O)[C@H](CCc2ccc(C(F)(F)F)c(Cl)c2)NC(=O)[C@@H](C)N(C)C(=O)[C@H](CC2CCCCC2)N(C)C(=O)[C@@H]2CCN2C(=O)[C@H](CC)N(C)C1=O [Compound 2012] (cyclo([Ac5c][NMeV][d(β3hA)][NMeA]I[NMeAbu][Aze][NMeCha][dNMeA][hPhe(3-Cl-4-CF3)]P)),0.2
9,CC[C@H](C)[C@@H]1NC(=O)[C@H](C)N(C)C(=O)C[C@@H](C)NC(=O)[C@H](C(C)C)N(C)C(=O)C2(CCCC2)NC(=O)[C@@H]2CCCN2C(=O)[C@H](CCc2ccc(C(F)(F)F)c(Cl)c2)NC(=O)[C@@H](C)N(C)C(=O)[C@H](CC2CCCCC2)N(C)C(=O)[C@@H]2CCN2C(=O)[C@@H]2CCN2C1=O [Compound 2013] (cyclo([Ac5c][NMeV][d(β3hA)][NMeA]I[Aze][Aze][NMeCha][dNMeA][hPhe(3-Cl-4-CF3)]P)),0.15
10,CCCOC[C@H]1C(=O)N2CC[C@H]2C(=O)N(C)[C@@H](CC2CCCCC2)C(=O)N(C)[C@H](C)C(=O)N[C@@H](CCc2ccc(C(F)(F)F)c(Cl)c2)C(=O)N2CCC[C@H]2C(=O)NC2(CCCC2)C(=O)N(C)[C@@H](C(C)C)C(=O)N[C@H](C)CC(=O)N(C)[C@@H](C)C(=O)N[C@@H]([C@@H](C)CC)C(=O)N1C [Compound 2016] (cyclo([Ac5c][NMeV][d(β3hA)][NMeA]I[NMeS](Propyl)[Aze][NMeCha][dNMeA][hPhe(3-Cl-4-CF3)]P)),0.27
11,CCCC[C@H]1C(=O)N2CC[C@H]2C(=O)N(C)[C@@H](CC2CCCCC2)C(=O)N(C)[C@H](C)C(=O)N[C@@H](CCc2ccc(C(F)(F)F)c(Cl)c2)C(=O)N2CCC[C@H]2C(=O)NC2(CCCC2)C(=O)N(C)[C@@H](C(C)C)C(=O)N[C@H](C)CC(=O)N(C)[C@@H](C)C(=O)N[C@@H]([C@@H](C)CC)C(=O)N1C [Compound 2017] (cyclo([Ac5c][NMeV][d(β3hA)][NMeA]I[NMeNle][Aze][NMeCha][dNMeA][hPhe(3-Cl-4-CF3)]P)),0.35
12,CC[C@H](C)[C@@H]1NC(=O)[C@H](C)N(C)C(=O)C[C@@H](C)NC(=O)[C@H](C(C)C)N(C)C(=O)C2(CCCC2)NC(=O)[C@@H]2CCCN2C(=O)[C@H](CCc2ccc(C(F)(F)F)c(Cl)c2)NC(=O)[C@@H](C)N(C)C(=O)[C@H](CC2CCCCC2)N(C)C(=O)[C@@H]2CCN2C(=O)[C@H](CC(C)C)N(C)C1=O [Compound 2018] (cyclo([Ac5c][NMeV][d(β3hA)][NMeA]I[NMeL][Aze][NMeCha][dNMeA][hPhe(3-Cl-4-CF3)]P)),0.32
13,CC[C@H](C)[C@@H]1NC(=O)[C@H](C)N(C)C(=O)C[C@@H](C(=O)N2CCOCC2)N(C)C(=O)[C@H](C(C)C)N(C)C(=O)C2(CCCC2)NC(=O)[C@H](Cc2ccccc2Cl)N(C)C(=O)[C@H](CCc2ccc(C(F)(F)F)c(Cl)c2)NC(=O)CN(C)C(=O)[C@H](CC2CCCCC2)N(C)C(=O)CN(C)C(=O)CN(C)C1=O [Compound 2020] ([NMeA]I[Sar][Sar][NMeCha][Sar][hPhe(3-Cl-4-CF3)][NMePhe(2-Cl)][Ac5c][NMeV][NMeD]-Morpholide; lactam N-11),0.27
14,CC[C@H](C)[C@@H]1NC(=O)[C@H](CC(C)C)N(C)C(=O)C[C@@H](C(=O)N2CCCCC2)N(C)C(=O)[C@H](C2CCCCC2)N(C)C(=O)C2(CCCC2)NC(=O)CN(CCCN2CCC(F)(F)CC2)C(=O)[C@H](CCc2ccc(C(F)(F)F)c(Cl)c2)NC(=O)CN(C)C(=O)[C@H](CC2CCCCC2)N(C)C(=O)CN(C)C(=O)CN(C)C1=O [Compound 2021] ([NMeL]I[Sar][Sar][NMeCha][Sar][hPhe(3-Cl-4-CF3)][X61][Ac5c][NMeChg][NMeD]-Piperidide; lactam N-11),0.0028
